In patent US20040147562A1, “Methods of treating conditions associated with an EDG-1 receptor” (priority 2002, published 2004):
Like-named read-outs stand apart in the source and are kept apart here.

Assays:
human Edg-1 receptors [1] = experiment: Intracellular calcium (FLIPR) assay, HTC cells expressing Edg-1; type: cell-based; settings: Edg-1 relative to other Edg receptors, inhibition (Table 2)
Experimental: (§1) The compounds were tested in HTC cells expressing human Edg-1 receptors. […] The compounds were tested in this recombinant system first, and subsequently tested in cell lines expressing Edg-1 (in addition to other Edg receptors).
(§2) […] receptors such as Edg-1, couple to calcium effector pathways, and result in increases in intracellular calcium following receptor activation (An, 1998, J. Cell Biochem. Supp 30-31:147-157). This biological response lends itself to a very efficient, high-throughput screen using a Fluorescence Imaging Plate Reader (FLIPR; Molecular Devices, Sunnyvale, Calif.). The FLIPR system is a real-time, cell-based assay system with continuous fluorescence detection using a cooled CCD camera. The FLIPR system was used to develop an Edg-1 receptor screen. Rat hepatoma cells stably expressing Edg-1/3i3 chimera or Edg-1 and Gqi were plated on 384-well plates and loaded with a calcium dye loading kit (Molecular Devices, Sunnyvale, Calif.) for 1 hour at room temperature. Cells were then placed on the FLIPR^384 (Molecular Devices, Sunnyvale, Calif.) and excited by an argon laser at 488 nm. The data for the entire 384-well plate was updated every second. An integrated robotic pipettor allowed for simultaneous compound addition into each individual well in the plate.

Edg-2 = biological target: T1, Edg-2 (Homo sapiens, UniProt Q92633); experiment: Intracellular calcium (FLIPR) assay, HTC cells expressing Edg-2; type: cell-based; settings: Table 2; LPA-stimulated
T1 construct: expressed in transfected cells; host or cells: HTC rat hepatoma cells

Edg-3 = biological target: T2, Edg-3 (Homo sapiens, UniProt Q99500); experiment: Intracellular calcium (FLIPR) assay, HTC cells expressing Edg-3; type: cell-based; settings: Table 2; S1P-stimulated
T2 construct: expressed in transfected cells; host or cells: HTC rat hepatoma cells

Edg-4 = Edg-4 (Homo sapiens, UniProt Q9HBW0); experiment: Intracellular calcium (FLIPR) assay, HTC cells expressing Edg-4; type: cell-based; settings: Table 2; LPA-stimulated
Edg-5 = biological target: T3, Edg-5 (Homo sapiens, UniProt O95136); experiment: Intracellular calcium (FLIPR) assay, HTC cells expressing Edg-5; type: cell-based; settings: Table 2; S1P-stimulated
T3 construct: expressed in transfected cells; host or cells: HTC rat hepatoma cells

Edg-6 = biological target: T4, Edg-6 (Homo sapiens, UniProt O95977); experiment: Intracellular calcium (FLIPR) assay, HTC cells expressing Edg-6; type: cell-based; settings: Table 2; S1P-stimulated
T4 construct: expressed in transfected cells; host or cells: HTC rat hepatoma cells
T4 sequence (O95977 1-384): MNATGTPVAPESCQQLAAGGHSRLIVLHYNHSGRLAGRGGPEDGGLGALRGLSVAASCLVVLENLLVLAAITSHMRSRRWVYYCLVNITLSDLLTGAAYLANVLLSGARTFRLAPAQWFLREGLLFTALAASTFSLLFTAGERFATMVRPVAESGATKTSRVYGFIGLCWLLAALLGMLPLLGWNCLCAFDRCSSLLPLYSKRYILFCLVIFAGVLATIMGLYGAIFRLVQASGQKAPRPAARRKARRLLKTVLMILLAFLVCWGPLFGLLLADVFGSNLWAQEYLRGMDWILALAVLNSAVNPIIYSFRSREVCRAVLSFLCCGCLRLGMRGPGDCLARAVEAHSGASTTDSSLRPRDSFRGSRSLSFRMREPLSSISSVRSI

Edg-7 = biological target: T5, Edg-7 (Homo sapiens, UniProt Q9UBY5); experiment: Intracellular calcium (FLIPR) assay, HTC cells expressing Edg-7; type: cell-based; settings: Table 2; LPA-stimulated
T5 construct: expressed in transfected cells; host or cells: HTC rat hepatoma cells
T5 sequence (Q9UBY5 1-353): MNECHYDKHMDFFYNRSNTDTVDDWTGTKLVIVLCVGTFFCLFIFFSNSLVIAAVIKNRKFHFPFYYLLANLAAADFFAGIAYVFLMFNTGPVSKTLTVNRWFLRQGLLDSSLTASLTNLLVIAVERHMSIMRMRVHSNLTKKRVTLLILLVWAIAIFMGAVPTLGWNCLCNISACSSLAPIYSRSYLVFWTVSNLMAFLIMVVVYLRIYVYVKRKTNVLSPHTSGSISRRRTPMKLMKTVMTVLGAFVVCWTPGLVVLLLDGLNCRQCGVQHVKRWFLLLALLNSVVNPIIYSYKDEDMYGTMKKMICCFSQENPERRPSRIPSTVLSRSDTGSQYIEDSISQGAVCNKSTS

Edg-8 = biological target: T6, Edg-8 (Homo sapiens, UniProt Q9H228); experiment: Intracellular calcium (FLIPR) assay, HTC cells expressing Edg-8; type: cell-based; settings: Table 2; S1P-stimulated
T6 construct: expressed in transfected cells; host or cells: HTC rat hepatoma cells

human Edg-1 receptors [2] = biological target: human Edg-1 receptors (Homo sapiens, UniProt P21453); experiment: Intracellular calcium (FLIPR) assay, HTC cells expressing Edg-1; type: cell-based; design: Edg 1 IC50 μM; fused on or other part: in the chimera reading: the third intracellular loop (i3) of Edg-3 (S1PR3) in place of Edg-1's own
Experimental: as §1, §2

[3] = system: human umbilical vein endothelial cells; experiment: Trans-matrigel chemotaxis / invasion assay with HUVECs (modified Boyden chamber); type: cell-based; settings: HUVECs, trans-matrigel; FIG. 10
Experimental: In addition to Edg-1, other Edg receptors are also implicated in S1P stimulated chemotaxis, including Edg-3 and Edg-6. To assess the relative roles of the Edg-1 receptors and Edg-3 receptors in S1P stimulated chemotaxis, the ability of S1P to evoke trans-matrigel chemotaxis was tested in the presence of the Edg-1 antagonist 101, the Edg-3 antagonist 301, and the combination of 101 and 301. These experiments were performed according to the migration and invasion assay protocols described in Section 7.12, below. The Edg-3 antagonist 301, 3-Methyl-2-phenyl-quinoline-4-carboxylic acid 4-fluoro-benzylamide, is extensively described in co-pending U.S. application Ser. No. 10/390,426, which is incorporated by reference in its entirety. 301 is identified as compound 101 in U.S. application Ser. No. 10/390,426. Further, 301 is commercially available from Specs (The Netherlands) as compound number AK-968/12971392.
(§3) S1P is a strong chemoattractant to human PBMCs. […] Several migration assays were performed to test this hypothesis and to determine the effect of Edg-1 agonists and antagonists on S1P mediated chemotaxis. The migration assays were performed according to the protocol described in Section 7.12, below. The results of theses assays are presented in FIG. 6, FIG. 7, FIG. 8, FIG. 9 and FIG. 13.
(§4) Cells were plated in a 24 well format using Fluoroblok filter insert plates ([…] pore size) or Fluoroblok matrigel coated filter insert plates (Becton Dickinson, San Diego, Calif.). The assay was a modified Boyden Chamber assay in which a cell suspension (1×10^5 cells/ml) was prepared in serum free medium and added to the top chamber. LPA or S1P (doses ranged from 0.1-10 μM in serum free medium) was added to the bottom chamber. Following a 20-24 hour incubation period, the number of cells migrating or invading into the lower chamber was quantitated by transferring the filter insert into a fresh 24-well plate containing 4 μg/ml calcein AM (Molecular Probes, Sunnyvale, Calif.) in Hank's Balanced Salt Solution and staining for one hour.
(§5) Detection was via fluorescent readout at 450 nm excitation/530 nm emission using a fluorimeter. The level of fluorescence correlated with cell number.

[4] = system: human peripheral blood mononuclear cells; experiment: Migration of human peripheral blood mononuclear cells; type: cell-based; settings: chemoattractant; FIG. 9, 13
Experimental: as §3, §4, §5
Human PBMCs are isolated from the buffy coats of healthy donors from the Stanford Blood Center. […]

murine CD4 T cells = experiment: Murine CD4 T cell chemotactic response to exodus-2; type: cell-based
Experimental: To assess this modulation and to test the effects of Edg-1 agonists and antagonists on this effect, murine CD4 T cells chemotactic responses to exodus-2 were tested in the presence of S1P and the Edg-1 agonist 104. These experiments were performed according to the migration and invasion assay protocols described in Section 7.12, below.
The effects of Edg-1 antagonists on S1P regulation of the chemotactic response to exodus-2 were also assessed. This experiment was performed according to the migration and invasion assay protocols described in Section 7.12, below. […] Thus, these Edg-1 antagonists can antagonize both aspects of the regulation by S1P of exodus-2-mediated chemotaxis.
as §4, §5

mouse T cells = experiment: Mouse T cell migration in Transwell chambers with matrigel; type: cell-based; settings: stimulant in bottom chamber; S1P at high concentrations; FIG. 14
Experimental: To further elucidate the role of the Edg-1 receptor in lymphocyte trafficking, migration of mouse T cells was analyzed in both in vitro and in vivo models. Migration of mouse T cells was first tested in Transwell chambers (Costar, Cambridge, Mass.) with polycarbonate fibers having a pore width of 8 μm, separated by a layer of matrigel. Stimulants S1P or exodus-2 were separately added to the bottom chamber. The effects of exodus-2 were tested alone, with S1P, and with S1P and Edg-1 antagonists 101 and 102.

[5] = system: mouse splenic CD4 T cells; experiment: Lymphocyte migration in mouse dorsal air-pouch model; type: in vivo; settings: CD4 T cells treated ex vivo, given intraperitoneally, lavage after 24 hours; S1P 1 μM; FIG. 15
Experimental: To test migration of mouse T cells in vivo, the ability of exodus-2 to attract mouse lymphocytes was assessed in the mouse dorsal air-pouch model. In these experiments, 0.5 ml 1 μM exodus-2 was introduced into a dorsal air-pouch produced by injecting 5 ml of filtered air subcutaneously. Mouse splenic CD4 T cells were fluorescently labeled with FM-DiI (Molecular Probes, Inc., Eugene, Oreg.), then treated with S1P (1 μM), 102, or 104. The treated CD4T cells were introduced into the peritoneal cavity. After 24 hours, lavage (1 ml) from the dorsal air pouch was assayed for fluorescence.

[6] = Table 1, Edg-1 modulators, read-out: IC50

Edg-4, sequence (Q9HBW0 1-340 limits assumed): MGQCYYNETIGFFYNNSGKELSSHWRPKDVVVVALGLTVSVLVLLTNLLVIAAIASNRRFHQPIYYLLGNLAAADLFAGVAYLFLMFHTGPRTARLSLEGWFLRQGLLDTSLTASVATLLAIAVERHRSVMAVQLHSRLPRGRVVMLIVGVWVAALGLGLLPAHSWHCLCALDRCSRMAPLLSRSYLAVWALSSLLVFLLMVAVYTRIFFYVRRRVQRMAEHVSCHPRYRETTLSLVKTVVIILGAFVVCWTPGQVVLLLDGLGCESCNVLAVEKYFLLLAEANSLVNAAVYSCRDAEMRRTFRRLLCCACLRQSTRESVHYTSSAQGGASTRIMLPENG
T1 sequence (Q92633 whole entry): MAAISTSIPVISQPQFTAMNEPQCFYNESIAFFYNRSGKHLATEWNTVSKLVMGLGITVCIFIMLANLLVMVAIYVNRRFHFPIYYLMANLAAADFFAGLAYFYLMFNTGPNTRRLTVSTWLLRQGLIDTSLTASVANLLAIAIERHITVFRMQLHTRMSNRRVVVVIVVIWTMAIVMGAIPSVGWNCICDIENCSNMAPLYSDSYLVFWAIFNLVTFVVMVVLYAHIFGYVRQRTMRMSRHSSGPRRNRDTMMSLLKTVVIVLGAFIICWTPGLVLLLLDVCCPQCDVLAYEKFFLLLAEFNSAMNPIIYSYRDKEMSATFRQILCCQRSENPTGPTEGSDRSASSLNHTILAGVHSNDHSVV
T6 sequence (Q9H228 whole entry): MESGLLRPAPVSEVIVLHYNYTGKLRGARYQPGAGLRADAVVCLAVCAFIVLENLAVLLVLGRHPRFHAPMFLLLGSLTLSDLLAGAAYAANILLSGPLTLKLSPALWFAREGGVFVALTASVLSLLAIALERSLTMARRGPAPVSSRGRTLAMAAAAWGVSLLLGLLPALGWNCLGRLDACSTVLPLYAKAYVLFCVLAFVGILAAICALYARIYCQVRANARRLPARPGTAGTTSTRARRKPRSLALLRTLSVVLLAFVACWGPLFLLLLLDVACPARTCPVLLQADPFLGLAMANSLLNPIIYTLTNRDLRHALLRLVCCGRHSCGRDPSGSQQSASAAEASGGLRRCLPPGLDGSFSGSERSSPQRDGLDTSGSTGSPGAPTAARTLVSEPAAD
T2 sequence (Q99500 whole entry): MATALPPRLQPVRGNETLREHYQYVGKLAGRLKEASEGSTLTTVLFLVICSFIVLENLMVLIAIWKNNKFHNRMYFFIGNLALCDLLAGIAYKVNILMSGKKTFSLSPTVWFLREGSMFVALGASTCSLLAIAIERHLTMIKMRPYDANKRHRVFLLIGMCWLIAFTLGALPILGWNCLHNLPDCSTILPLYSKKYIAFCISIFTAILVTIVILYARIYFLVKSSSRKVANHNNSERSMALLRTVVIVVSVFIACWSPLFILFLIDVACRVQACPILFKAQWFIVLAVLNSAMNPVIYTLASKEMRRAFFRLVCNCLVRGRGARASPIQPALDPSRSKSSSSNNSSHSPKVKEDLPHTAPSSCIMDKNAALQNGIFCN
T3 sequence (O95136 whole entry): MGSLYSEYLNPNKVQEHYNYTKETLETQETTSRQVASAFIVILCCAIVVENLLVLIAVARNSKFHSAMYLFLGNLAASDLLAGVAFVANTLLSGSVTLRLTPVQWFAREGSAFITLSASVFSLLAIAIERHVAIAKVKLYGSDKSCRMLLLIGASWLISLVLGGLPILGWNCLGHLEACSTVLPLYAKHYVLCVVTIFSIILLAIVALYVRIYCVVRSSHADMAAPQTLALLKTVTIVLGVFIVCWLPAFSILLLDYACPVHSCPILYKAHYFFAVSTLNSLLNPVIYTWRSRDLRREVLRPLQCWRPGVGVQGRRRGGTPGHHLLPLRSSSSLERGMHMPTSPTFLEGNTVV

COc1cc2c(cc1OC)[C@H]1CN3CCc4cc(OC)c(OC)cc4[C@H]3CN1CC2 [Compound 103]
Fold Selectivity (human Edg-1 receptors [1]): >27.0 Fold | IC50 (Edg-2): > 20 µM | IC50 (Edg-3): > 20 µM | IC50 (Edg-4): > 20 µM | IC50 (Edg-5): > 20 µM | IC50 (Edg-6): > 20 µM | IC50 (Edg-7): > 20 µM | IC50 (Edg-8): > 20 µM | IC50 (human Edg-1 receptors [2]; Table 2, inhibition of S1P response, read-out: Edg 1 IC50): 0.74 µM

O=C(c1cccnc1)N1N=C(C(F)(F)F)CC1(O)c1ccc(Cl)cc1 (centres unmarked) [Compound 105]
IC50 (human Edg-1 receptors [2]; [6]): 1.29 µM

CCc1ccc(C2=NN(C(=O)c3cccnc3)C(O)(C(F)(F)F)C2)cc1 (centres unmarked) [Compound 106]
IC50 (human Edg-1 receptors [2]; [6]): 1.74 µM

O=C(c1cccnc1)N1N=C(c2ccccc2)CC1(O)C(F)(F)F (centres unmarked) [Compound 107]
IC50 (human Edg-1 receptors [2]; [6]): 3.51 µM

Nc1ccc(C(=O)N2N=C(c3ccccc3)CC2(O)C(F)(F)F)cc1 (centres unmarked) [Compound 108]
IC50 (human Edg-1 receptors [2]; [6]): 3.56 µM

Nc1ccc(C(=O)N2N=C(c3ccc(F)cc3)CC2(O)C(F)(F)F)cc1 (centres unmarked) [Compound 109]
IC50 (human Edg-1 receptors [2]; [6]): 3.94 µM

Nc1ccc(C(=O)N2N=C(C(F)(F)F)CC2(O)c2ccc(Br)cc2)cc1 (centres unmarked) [Compound 110]
IC50 (human Edg-1 receptors [2]; [6]): 4.58 µM

O=C(c1ccccc1)N1N=C(c2ccccc2)CC1(O)C(F)(F)F (centres unmarked) [Compound 111]
IC50 (human Edg-1 receptors [2]; [6]): 5.08 µM

O=C(c1cccnc1)N1N=C(c2ccc(F)cc2)CC1(O)C(F)(F)F (centres unmarked) [Compound 112]
IC50 (human Edg-1 receptors [2]; [6]): 5.92 µM

O=C(c1ccccc1F)N1N=C(C(F)(F)F)CC1(O)c1ccc(Cl)cc1 (centres unmarked) [Compound 113]
IC50 (human Edg-1 receptors [2]; [6]): 6.02 µM

Cc1c(-c2ccccc2)nc2ccccc2c1C(=O)NCc1ccc(F)cc1 [Compound 301, 3-Methyl-2-phenyl-quinoline-4-carboxylic acid 4-fluoro-benzylamide, reference compound]
inhibition of S1P-stimulated chemotaxis [3]: inhibit S1P-stimulated chemotaxis

CCCCCCCCCCCCC/C=C/[C@@H](O)[C@@H](N)COP(=O)(O)O [Compound S1P, sphingosine-1-phosphate, reference compound]
migration of human peripheral blood mononuclear cells [4]: attracts human PMBCs in a dose dependent manner | effect on chemotaxis of murine CD4 T cells to exodus-2 (murine CD4 T cells; low and high concentrations desensitize, moderate stimulate, FIG. 11): bell-shaped dose dependant response curve | stimulation of T cell migration by stimulant alone (mouse T cells): do not stimulate T cell migration | migration of treated lymphocytes to exodus-2 in dorsal air-pouch [5]: desensitizes the lymphocytes to attraction by exodus-2

CCCCCCCCc1ccc(CCC(N)(CO)CO)cc1 [FTY720, reference compound]
effect on S1P-mediated desensitization of the chemotactic response to exodus-2 (murine CD4 T cells; high concentrations of S1P, FIG. 12): reverse S1P-mediated desensitization | effect on S1P-mediated stimulation of the chemotactic response to exodus-2 (murine CD4 T cells; moderate concentrations of S1P, FIG. 12): inhibit S1P-mediated stimulation

B1: exodus-2: cytokine, chemoattractant for lymphocytes (protein, UniProt O00585 24-134, looked up)
C-C motif chemokine 21: SDGGAQDCCLKYSQRKIPAKVVRSYRKQEPSLGCSIPAILFLPRKRSQAELCADPKELWVQQLMQHLDKTPSPQKPAQGCRKDRGASKTGKKGKGSKGCKRTERSQTPKGP
stimulation of T cell migration by stimulant alone (mouse T cells): does stimulate T cell migration
